Reference: ChEMBL document CHEMBL4024740, “Isocostunolide inhibited glioma stem cell by suppression proliferation and inducing caspase dependent apoptosis” (Bioorg Med Chem Lett, 2017)
≈ marks a conversion by molar mass, not a printed value. Calls of active or inactive are those of the source. The calls are words filed in the database; no cut-off is given here.

Experiments:
[1] = Induction of apoptosis in human GSC18 cells assessed as late apoptotic cells at 1 ug/ml after 8 hrs by Annexin V-FITC/propidium iodide staining based flow cytometric method (reference value: 4.25%); type: functional
[2] = Induction of apoptosis in human GSC3 cells assessed as early apoptotic cells at 2 ug/ml after 8 hrs by Annexin V-FITC/propidium iodide staining based flow cytometric method (reference value: 0.186%); type: functional
[3] = tested on: HEK-293T; assay: Cytotoxicity against human 293T cells after 72 hrs by MTS assay; type: cell-based
[4] = Induction of apoptosis in human GSC18 cells assessed as late apoptotic cells at 1 ug/ml after 8 hrs by Annexin V-FITC/propidium iodide staining based flow cytometric method (reference value: 2.54%); type: functional
[5] = Induction of apoptosis in human GSC18 cells assessed as viable cells at 2 ug/ml after 8 hrs by Annexin V-FITC/propidium iodide staining based flow cytometric method (reference value: 85.5%); type: functional; settings: GSC18, 8 h, read-out: Activity
[6] = Induction of apoptosis in human GSC3 cells assessed as late apoptotic cells at 1 ug/ml after 8 hrs by Annexin V-FITC/propidium iodide staining based flow cytometric method (reference value: 0.373%); type: functional
[7] = Induction of apoptosis in human GSC3 cells assessed as viable cells at 5 ug/ml after 8 hrs by Annexin V-FITC/propidium iodide staining based flow cytometric method (reference value: 98.8%); type: functional; settings: GSC-3, 8 h, read-out: Activity
[8] = tested on: GSC3; assay: Inhibition of colony formation in human GSC3 cells assessed as clonal sphere damage at 5 ug/ml after 10 days by crystal violet staining based assay; type: functional, cell-based
[9] = tested on: GSC3; assay: Cytotoxicity against human GSC3 cells assessed as cell rounding at 5 ug/ml measured after 8 hrs; type: functional, cell-based
[10] = Induction of apoptosis in human GSC3 cells assessed as late apoptotic cells at 5 ug/ml after 8 hrs by Annexin V-FITC/propidium iodide staining based flow cytometric method (reference value: 0.603%); type: functional
[11] = tested on: GSC18; assay: Cytotoxicity against human GSC18 cells assessed as cell shrinkage at 5 ug/ml measured after 8 hrs; type: functional, cell-based
[12] = Induction of apoptosis in human GSC18 cells assessed as early apoptotic cells at 2 ug/ml after 8 hrs by Annexin V-FITC/propidium iodide staining based flow cytometric method (reference value: 7.73%); type: functional
[13] = Induction of apoptosis in human GSC3 cells assessed as late apoptotic cells at 2 ug/ml after 8 hrs by Annexin V-FITC/propidium iodide staining based flow cytometric method (reference value: 0.373%); type: functional
[14] = Induction of apoptosis in human GSC18 cells assessed as late apoptotic cells at 2 ug/ml after 8 hrs by Annexin V-FITC/propidium iodide staining based flow cytometric method (reference value: 4.25%); type: functional
[15] = Induction of apoptosis in human GSC3 cells assessed as early apoptotic cells at 1 ug/ml after 8 hrs by Annexin V-FITC/propidium iodide staining based flow cytometric method (reference value: 0.186%); type: functional
[16] = tested on: GSC18; assay: Inhibition of colony formation in human GSC18 cells assessed as reduction in numbers of clonal sphere at 5 ug/ml after 10 days by crystal violet staining based assay; type: functional, cell-based
[17] = tested on: GSC3; assay: Inhibition of colony formation in human GSC3 cells assessed as reduction in numbers of clonal sphere at 5 ug/ml after 10 days by crystal violet staining based assay; type: functional, cell-based
[18] = Induction of apoptosis in human GSC3 cells assessed as late apoptotic cells at 2 ug/ml after 8 hrs by Annexin V-FITC/propidium iodide staining based flow cytometric method (reference value: 0.603%); type: functional
[19] = Induction of apoptosis in human GSC3 cells assessed as late apoptotic cells at 1 ug/ml after 8 hrs by Annexin V-FITC/propidium iodide staining based flow cytometric method (reference value: 0.603%); type: functional
[20] = Induction of apoptosis in human GSC18 cells assessed as viable cells at 5 ug/ml after 8 hrs by Annexin V-FITC/propidium iodide staining based flow cytometric method (reference value: 85.5%); type: functional; settings: GSC18, 8 h, read-out: Activity
[21] = Cytotoxicity against human GSC3 cells after 72 hrs by MTS assay; type: functional, cell-based; settings: GSC-3, 72 h
[22] = Cytotoxicity against human GSC12 cells after 72 hrs by MTS assay; type: functional, cell-based; settings: GSC12, 72 h
[23] = Induction of apoptosis in human GSC18 cells assessed as late apoptotic cells at 2 ug/ml after 8 hrs by Annexin V-FITC/propidium iodide staining based flow cytometric method (reference value: 2.54%); type: functional
[24] = tested on: GSC18; assay: Inhibition of colony formation in human GSC18 cells assessed as clonal sphere damage at 5 ug/ml after 10 days by crystal violet staining based assay; type: functional, cell-based
[25] = tested on: GSC3; assay: Cytotoxicity against human GSC3 cells assessed as cell detachment at 5 ug/ml measured after 8 hrs; type: functional, cell-based
[26] = Cytotoxicity against human HAC cells after 72 hrs by MTS assay; type: cell-based
[27] = Induction of apoptosis in human GSC18 cells assessed as early apoptotic cells at 5 ug/ml after 8 hrs by Annexin V-FITC/propidium iodide staining based flow cytometric method (reference value: 7.73%); type: functional
[28] = Induction of apoptosis in human GSC3 cells assessed as early apoptotic cells at 5 ug/ml after 8 hrs by Annexin V-FITC/propidium iodide staining based flow cytometric method (reference value: 0.186%); type: functional
[29] = tested on: GSC18; assay: Induction of apoptosis in human GSC18 cells assessed as increase in cleaved caspase-3 at 5 ug/ml after 8 hrs by DAPI staining based immunofluorescence assay; type: functional, cell-based
[30] = tested on: GSC3; assay: Growth inhibition of human GSC3 cells at 10 ug/ml; type: functional, cell-based
[31] = Induction of apoptosis in human GSC3 cells assessed as viable cells at 1 ug/ml after 8 hrs by Annexin V-FITC/propidium iodide staining based flow cytometric method (reference value: 98.8%); type: functional; settings: GSC-3, 8 h, read-out: Activity
[32] = Induction of apoptosis in human GSC18 cells assessed as late apoptotic cells at 5 ug/ml after 8 hrs by Annexin V-FITC/propidium iodide staining based flow cytometric method (reference value: 2.54%); type: functional
[33] = tested on: GSC18; assay: Cytotoxicity against human GSC18 cells assessed as cell rounding at 5 ug/ml measured after 8 hrs; type: functional, cell-based
[34] = tested on: GSC18; assay: Cytotoxicity against human GSC18 cells assessed as suppression of DNA synthesis at 5 ug/ml after 8 hrs by BrdU/DAPI staining based immunofluorescence assay; type: functional, cell-based
[35] = tested on: GSC3; assay: Induction of apoptosis in human GSC3 cells assessed as increase in cleaved caspase-3 at 5 ug/ml after 8 hrs by DAPI staining based immunofluorescence assay; type: functional, cell-based
[36] = tested on: GSC3; assay: Cytotoxicity against human GSC3 cells assessed as suppression of DNA synthesis at 5 ug/ml after 8 hrs by BrdU/DAPI staining based immunofluorescence assay; type: functional, cell-based
[37] = Induction of apoptosis in human GSC3 cells assessed as viable cells at 2 ug/ml after 8 hrs by Annexin V-FITC/propidium iodide staining based flow cytometric method (reference value: 98.8%); type: functional; settings: GSC-3, 8 h, read-out: Activity
[38] = Induction of apoptosis in human GSC18 cells assessed as late apoptotic cells at 5 ug/ml after 8 hrs by Annexin V-FITC/propidium iodide staining based flow cytometric method (reference value: 4.25%); type: functional
[39] = Induction of apoptosis in human GSC3 cells assessed as late apoptotic cells at 5 ug/ml after 8 hrs by Annexin V-FITC/propidium iodide staining based flow cytometric method (reference value: 0.373%); type: functional
[40] = Cytotoxicity against human GSC18 cells after 72 hrs by MTS assay; type: functional, cell-based; settings: GSC18, 72 h
[41] = Induction of apoptosis in human GSC18 cells assessed as early apoptotic cells at 1 ug/ml after 8 hrs by Annexin V-FITC/propidium iodide staining based flow cytometric method (reference value: 7.73%); type: functional
[42] = tested on: GSC12; assay: Growth inhibition of human GSC12 cells at 10 ug/ml; type: functional, cell-based
[43] = Induction of apoptosis in human GSC18 cells assessed as viable cells at 1 ug/ml after 8 hrs by Annexin V-FITC/propidium iodide staining based flow cytometric method (reference value: 85.5%); type: functional; settings: GSC18, 8 h, read-out: Activity
[44] = tested on: GSC18; assay: Growth inhibition of human GSC18 cells at 10 ug/ml; type: functional, cell-based
[45] = tested on: GSC3; assay: Cytotoxicity against human GSC3 cells assessed as cell shrinkage at 5 ug/ml measured after 8 hrs; type: functional, cell-based
[46] = tested on: GSC18; assay: Cytotoxicity against human GSC18 cells assessed as cell detachment at 5 ug/ml measured after 8 hrs; type: functional, cell-based

## C=C1C(=O)O[C@@H]2/C=C(\C)CCC/C(C)=C/C[C@@H]12
[1]
  Activity: 17.3%
[2]
  Activity: 1.06%
[3]
  IC50: 7.61 µg/mL (≈ 32.8 µM)
[4]
  Activity: 30%
[5]
  viability at 2 µg/mL: 57.5%
[6]
  Activity: 4.3%
[7]
  viability at 5 µg/mL: 19.2%
[8]
  inhibition: Active
[9]
  Activity: Active
[10]
  Activity: 54.3%
[11]
  Activity: Active
[12]
  Activity: 3.28%
[13]
  Activity: 4%
[14]
  Activity: 22.1%
[15]
  Activity: 0.096%
[16]
  inhibition: Active
[17]
  inhibition: Active
[18]
  Activity: 3.53%
[19]
  Activity: 0.942%
[20]
  viability at 5 µg/mL: 39.6%
[21]
  IC50: 2.8 µg/mL (≈ 12.1 µM)
[22]
  IC50: 2.61 µg/mL (≈ 11.2 µM)
[23]
  Activity: 17.1%
[24]
  inhibition: Active
[25]
  Activity: Active
[26]
  IC50: 7.42 µg/mL (≈ 31.9 µM)
[27]
  Activity: 4.1%
[28]
  Activity: 3.98%
[29]
  Activity: Active
[30]
  growth inhibition (GI): Active
[31]
  viability at 1 µg/mL: 94.7%
[32]
  Activity: 35.2%
[33]
  Activity: Active
[34]
  Activity: Active
[35]
  Activity: Active
[36]
  Activity: Active
[37]
  viability at 2 µg/mL: 91.4%
[38]
  Activity: 21.1%
[39]
  Activity: 22.4%
[40]
  IC50: 1.07 µg/mL (≈ 4.61 µM)
[41]
  Activity: 1.54%
[42]
  growth inhibition (GI): Active
[43]
  viability at 1 µg/mL: 51.2%
[44]
  growth inhibition (GI): Active
[45]
  Activity: Active
[46]
  Activity: Active
